Molecular target: T1, Integrin alpha-4/beta-7 (Homo sapiens, UniProt P13612+P26010)
T1 sequence (P13612 whole entry): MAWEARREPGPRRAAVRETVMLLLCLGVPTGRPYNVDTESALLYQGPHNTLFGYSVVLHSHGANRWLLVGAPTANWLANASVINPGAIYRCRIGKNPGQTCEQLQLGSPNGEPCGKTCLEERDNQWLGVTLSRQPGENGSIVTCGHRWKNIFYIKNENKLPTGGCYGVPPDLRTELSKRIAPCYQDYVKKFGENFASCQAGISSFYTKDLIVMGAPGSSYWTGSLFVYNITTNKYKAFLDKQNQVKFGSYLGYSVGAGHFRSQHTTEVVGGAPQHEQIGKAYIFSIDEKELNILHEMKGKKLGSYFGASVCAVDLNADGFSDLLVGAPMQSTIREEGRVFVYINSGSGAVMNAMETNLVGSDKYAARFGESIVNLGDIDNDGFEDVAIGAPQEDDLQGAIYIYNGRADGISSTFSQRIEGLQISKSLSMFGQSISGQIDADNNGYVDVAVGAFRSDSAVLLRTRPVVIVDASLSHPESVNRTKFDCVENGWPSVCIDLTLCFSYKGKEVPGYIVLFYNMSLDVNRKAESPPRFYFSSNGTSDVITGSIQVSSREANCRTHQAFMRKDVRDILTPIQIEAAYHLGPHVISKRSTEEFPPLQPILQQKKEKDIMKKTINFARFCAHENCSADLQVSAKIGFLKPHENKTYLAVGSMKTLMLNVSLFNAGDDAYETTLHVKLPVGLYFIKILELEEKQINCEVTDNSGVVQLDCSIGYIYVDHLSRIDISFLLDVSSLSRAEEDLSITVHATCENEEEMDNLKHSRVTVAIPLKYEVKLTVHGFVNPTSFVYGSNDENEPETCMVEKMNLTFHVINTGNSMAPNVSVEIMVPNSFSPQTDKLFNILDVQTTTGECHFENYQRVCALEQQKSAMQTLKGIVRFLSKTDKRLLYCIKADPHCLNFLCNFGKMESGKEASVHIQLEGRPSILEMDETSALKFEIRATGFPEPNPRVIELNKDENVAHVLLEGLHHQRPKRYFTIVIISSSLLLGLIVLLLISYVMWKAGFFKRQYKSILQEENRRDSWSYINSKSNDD
T1 sequence (P26010 whole entry): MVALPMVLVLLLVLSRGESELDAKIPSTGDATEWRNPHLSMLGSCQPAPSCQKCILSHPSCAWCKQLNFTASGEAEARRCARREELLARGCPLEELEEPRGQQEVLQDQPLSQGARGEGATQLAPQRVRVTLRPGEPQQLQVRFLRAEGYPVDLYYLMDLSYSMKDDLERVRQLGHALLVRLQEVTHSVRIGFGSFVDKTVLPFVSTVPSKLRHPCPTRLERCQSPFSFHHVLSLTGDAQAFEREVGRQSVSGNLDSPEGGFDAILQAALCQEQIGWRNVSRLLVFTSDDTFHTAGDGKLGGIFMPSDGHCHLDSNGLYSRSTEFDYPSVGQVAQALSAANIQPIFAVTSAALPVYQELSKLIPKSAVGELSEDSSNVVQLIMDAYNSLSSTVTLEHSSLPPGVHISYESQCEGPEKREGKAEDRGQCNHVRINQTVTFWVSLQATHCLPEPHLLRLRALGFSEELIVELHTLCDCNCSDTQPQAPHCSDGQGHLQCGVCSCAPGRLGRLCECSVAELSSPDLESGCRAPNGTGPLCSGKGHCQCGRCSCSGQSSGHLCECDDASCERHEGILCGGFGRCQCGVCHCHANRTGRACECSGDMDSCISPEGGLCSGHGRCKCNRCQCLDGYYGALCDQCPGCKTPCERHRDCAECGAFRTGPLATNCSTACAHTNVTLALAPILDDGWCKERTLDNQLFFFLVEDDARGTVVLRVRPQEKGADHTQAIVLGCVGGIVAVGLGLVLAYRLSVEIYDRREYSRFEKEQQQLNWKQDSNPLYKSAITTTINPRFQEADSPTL
Assay: alpha-4 beta-7 Integrin Cell Capture Assay
Experimental: The potency of inhibitors in preventing α4β7 integrin interaction with MadCAM-1 was measured by monitoring the capture of α4β7 integrin expressing cells on a recombinant MadCAM-1 extracellular domain-coated plate. 384-Well plates (Corning 3702) were coated with MadCAM-1 extracellular domain by dispensing 20 μL of MAdCAM-1 at 1.0 μg/mL per well and incubating overnight at 4° C. The plates were then washed with PBS and blocked with 3% BSA for 2 hours before being washed again.

| EC50 [nM] | SMILES |
| --- | --- |
| 0.14 | Cc1nc(-c2ccc(C[C@H](NC(=O)c3c(F)cc(N4CCOC[C@@H]4C(F)(F)F)cc3Cl)C(=O)O)c3cccnc23)c(=O)n(C)c1C [US11116760, Example 454] |
| 4 | Cc1cc(C)nc(-c2ccc(C[C@H](NC(=O)c3c(F)cc(N4CCOC[C@@H]4C(F)(F)F)cc3F)C(=O)O)c3cccnc23)n1 [US11116760, Example 261] |
| 0.8 | CC[C@@H](Nc1cc(F)c(C(=O)N[C@@H](Cc2cc(F)c(-c3c(OC)cc(C)n(C)c3=O)c3ncccc23)C(=O)O)c(F)c1)C(F)(F)F [US11116760, Example 138] |
| 19.4 | C[C@@H]1CN(c2cc(F)c(C(=O)N[C@@H](Cc3ccc(-c4ccc(C#N)cc4Cl)c4ncccc34)C(=O)O)c(F)c2)CCO1 [US11116760, Example 328] |
| 60.5 | CC(O)c1cc(F)c(C(=O)N[C@@H](Cc2ccc(-c3ccc(C#N)cc3Cl)c3ncccc23)C(=O)O)c(F)c1 (stereo partly drawn) [US11116760, Example 33] |
| 68.8 | N#Cc1ccc(-c2ccc(C[C@H](NC(=O)c3c(F)cc(N4CCO[C@@H](C(F)(F)F)C4)cc3F)C(=O)O)c3cccnc23)c(Cl)c1 [US11116760, Example 265] |
| 9.3 | O=C(N[C@@H](Cc1ccc(-c2ccc(F)c3cccnc23)c2ncccc12)C(=O)O)c1c(F)cccc1F [US11116760, Example 15] |
| 14 | Cc1ccc(C(F)(F)F)c(-c2ccc(C[C@H](NC(=O)c3c(Cl)cccc3Cl)C(=O)O)c3cccnc23)n1 [US11116760, Example 68] |
| 0.4 | COc1ccnc(-c2ccc(C[C@H](NC(=O)c3c(F)cc(N4CCOC[C@@H]4C(F)(F)F)cc3F)C(=O)O)c3cccnc23)c1C(F)(F)F [US11116760, Example 93] |
| 0.3 | Cc1cc(C(F)(F)F)c(-c2ccc(C[C@H](NC(=O)c3c(F)cc(N[C@H](C4CC4)C(F)(F)F)cc3F)C(=O)O)c3cccnc23)c(=O)n1C [US11116760, Example 155] |
| 0.4 | CCOCc1cc(OC)c(-c2ccc(C[C@H](NC(=O)c3c(F)cc(NS(=O)(=O)c4ccc(-c5ccnc(F)c5)cc4)cc3F)C(=O)O)c3cccnc23)c(OC)c1 [US11116760, Example 50] |
| 7.4 | CC[C@@H](Nc1cc(F)c(C(=O)N[C@@H](Cc2ccc(-c3nccc(C)n3)c3ncccc23)C(=O)O)c(F)c1)C(F)(F)F [US11116760, Example 294] |
| 8.5 | COc1ccn(C)c(=O)c1-c1ccc(C[C@H](NC(=O)c2c(F)cccc2F)C(=O)O)c2cccnc12 [US11116760, Example 13] |
| 26.9 | CC(C)[C@H]1COCCN1c1cc(F)c(C(=O)N[C@@H](Cc2ccc(-c3ccc(C#N)cc3Cl)c3ncccc23)C(=O)O)c(F)c1 [US11116760, Example 292] |
| 5.5 | Nc1ccc(C(F)(F)F)c(-c2ccc(C[C@H](NC(=O)c3c(Cl)cccc3Cl)C(=O)O)c3cccnc23)n1 [US11116760, Example 72] |
| 96.6 | COc1cc(F)c(C(=O)N[C@@H](Cc2ccc(-c3ccc(C#N)cc3Cl)c3ncccc23)C(=O)O)c(F)c1 [US11116760, Example 21] |
| 35.2 | N#Cc1ccc(-c2ccc(C[C@H](NC(=O)c3c(F)cc(NC(C4CCOCC4)C(F)(F)F)cc3F)C(=O)O)c3cccnc23)c(Cl)c1 (stereo partly drawn) [US11116760, Example 247] |
| 36.7 | N#Cc1ccc(-c2ccc(C[C@H](NC(=O)c3c(Cl)ccc(F)c3F)C(=O)O)c3cccnc23)c(Cl)c1 [US11116760, Example 17] |
| 10.9 | CCOCc1cc(OC)c(-c2ccc(C[C@H](NC(=O)c3c(F)cc(N)cc3F)C(=O)O)c3cccnc23)c(OC)c1 [US11116760, Example 44] |

| EC50 [nM] | SMILES |
| --- | --- |
| 21.2 | O=C(N[C@@H](Cc1ccc(-c2cc(F)c(F)cc2OCC2CC2)c2ncccc12)C(=O)O)c1c(F)cccc1F [US11116760, Example 10] |
| 26.5 | N#Cc1ccc(-c2ccc(C[C@H](NC(=O)c3c(F)cc(N[C@H](C4CCOCC4)C(F)(F)F)cc3F)C(=O)O)c3cccnc23)c(Cl)c1 [US11116760, Example 338] |
| 3.2 | Cc1cnc(-c2ccc(C[C@H](NC(=O)c3c(F)cc(N4CCOC[C@@H]4C(F)(F)F)cc3F)C(=O)O)c3cccnc23)nc1C [US11116760, Example 97] |
| 33.6 | N#Cc1ccc(-c2ccc(C[C@H](NC(=O)c3c(F)cc(N4CCOC(C(F)(F)F)C4)cc3F)C(=O)O)c3cccnc23)c(Cl)c1 (stereo partly drawn) [US11116760, Example 245] |
| 3.1 | Cc1c(C)c(C)n(C)c(=O)c1-c1ccc(C[C@H](NC(=O)c2c(F)cc(N3CCOC[C@H]3C(F)(F)F)cc2F)C(=O)O)c2cccnc12 [US11116760, Example 251] |
| 51.7 | CC1(Nc2cc(F)c(C(=O)N[C@@H](Cc3ccc(-c4ccc(C#N)cc4Cl)c4ncccc34)C(=O)O)c(F)c2)COC1 [US11116760, Example 152] |
| 0.15 | Cc1cc2c(=O)n(-c3ccc(C[C@H](NC(=O)c4c(F)cc(N5CCOC[C@@H]5C(F)(F)F)cc4F)C(=O)O)c4cccnc34)c(=O)n(C)c2cn1 [US11116760, Example 424] |
| 28.6 | CC1(C)CN(c2cc(F)c(C(=O)N[C@@H](Cc3ccc(-c4ccc(C#N)cc4Cl)c4ncccc34)C(=O)O)c(F)c2)CCO1 [US11116760, Example 213] |
| 11.9 | CC[C@@H](Nc1cc(F)c(C(=O)N[C@@H](Cc2ccc(-c3ncc(C)c(C)n3)c3ncccc23)C(=O)O)c(F)c1)C(F)(F)F [US11116760, Example 309] |
| 28.6 | N#Cc1ccc(-c2ccc(C[C@H](NC(=O)c3c(F)cc(NC4COC4)cc3F)C(=O)O)c3cccnc23)c(Cl)c1 [US11116760, Example 214] |
| 11.7 | C[C@H]1CN(c2cc(F)c(C(=O)N[C@@H](Cc3ccc(-c4ccc(C#N)cc4Cl)c4ncccc34)C(=O)O)c(F)c2)CCO1 [US11116760, Example 84] |
| 72.2 | N#Cc1ccc(-c2ccc(C[C@H](NC(=O)c3ccc4[nH]ccc4c3Cl)C(=O)O)c3cccnc23)c(Cl)c1 [US11116760, Example 266] |
| 88.6 | N#Cc1ccc(-c2ccc(C[C@H](NC(=O)c3c(F)cc(NC(=O)c4ccccc4)cc3F)C(=O)O)c3cccnc23)c(Cl)c1 [US11116760, Example 169] |
| 81.5 | N#Cc1ccc(-c2ccc(C[C@H](NC(=O)c3c(F)cc(N[C@H]4CCC4(F)F)cc3F)C(=O)O)c3cccnc23)c(Cl)c1 [US11116760, Example 173] |
| 13.4 | O=C(N[C@@H](Cc1ccc(-c2nccc(C(F)(F)F)c2Cl)c2ncccc12)C(=O)O)c1c(Cl)cccc1Cl [US11116760, Example 314] |
| 21 | O=C(N[C@@H](Cc1ccc(-c2nccc(C#CC3CC3)c2C(F)(F)F)c2ncccc12)C(=O)O)c1c(Cl)cccc1Cl [US11116760, Example 330] |
| 30.6 | N#Cc1ccc(-c2ccc(C[C@H](NC(=O)c3c(F)cc(NC4CCOCC4)cc3F)C(=O)O)c3cccnc23)c(Cl)c1 [US11116760, Example 262] |
| 1.6 | COc1c(-c2ccc(C[C@H](NC(=O)c3c(F)cccc3F)C(=O)O)c3cccnc23)c(=O)n(C)c2ccccc12 [US11116760, Example 67] |

| SMILES | EC50 [nM] |
| --- | --- |
| CC[C@@H](Nc1cc(F)c(C(=O)N[C@@H](Cc2ccc(-c3c(C(F)(F)F)c4cc(N(C)C)ccc4n(C)c3=O)c3ncccc23)C(=O)O)c(F)c1)C(F)(F)F [US11116760, Example 125] | 1 |

From BindingDB's records for patent US11116760 (Gilead Sciences, 2021)
